Patent US10710978B2, “STK4 inhibitors for treatment of hematologic malignancies” (Dana-Farber Cancer Institute, Inc., priority 2015, dated 2020)
Read-outs that look alike come from different tables or passages of the source.

Assays:
Assay in all cases: KiNativ assay
Type in all cases: binding
Details in all cases: H929 live cell
ABL, ARG = test system: ABL, ARG
Procedure: (§1) Biochemical IC50s of the compounds of the present disclosure against various kinases were measured in a KiNativ assay. Compounds were screened in duplicate at 10 μM in H929 live cell. IC50 was measured via Mass spectroscopy (MS).

BRAF = BRAF (Homo sapiens (Human), UniProt P15056)
Procedure: as §1

CDK7 = CDK7 (Homo sapiens (Human), UniProt P50613)
Procedure: as §1

CSK = CSK (Homo sapiens (Human), UniProt P41240)
Procedure: as §1

EphB2 = EphB2 (Homo sapiens (Human), UniProt P29323)
Procedure: as §1

GSK3A = GSK3A (Homo sapiens (Human), UniProt P49840)
Procedure: as §1

IKKe, TBK1 = test system: IKKe, TBK1
Procedure: as §1

ILK = ILK (Homo sapiens (Human), UniProt Q13418)
Procedure: as §1

LATS1 = LATS1 (Homo sapiens (Human), UniProt O95835)
Procedure: as §1

MAP2K5 = MAP2K5 (Homo sapiens (Human), UniProt Q13163)
Procedure: as §1

MAP2K7 = MAP2K7 (Homo sapiens (Human), UniProt O14733)
Procedure: as §1

MAP3K1 = MAP3K1 (Homo sapiens (Human), UniProt Q13233)
Procedure: as §1

MAP3K2 = MAP3K2 (Homo sapiens (Human), UniProt Q9Y2U5)
Procedure: as §1

MARK1, MARK2 = test system: MARK1, MARK2
Procedure: as §1

MARK2 = MARK2 (Homo sapiens (Human), UniProt Q7KZI7)
Procedure: as §1

MLKL = MLKL (Homo sapiens (Human), UniProt Q8NB16)
Procedure: as §1

MPSK1 = MPSK1 (Homo sapiens (Human), UniProt O75716)
Procedure: as §1

MST1 = MST1 (Homo sapiens (Human), UniProt Q13043)
Procedure: as §1

MST3 = MST3 (Homo sapiens (Human), UniProt Q9Y6E0)
Procedure: as §1

NDR1 = NDR1 (Homo sapiens (Human), UniProt Q15208)
Procedure: as §1

NuaK1 = NuaK1 (Homo sapiens (Human), UniProt O60285)
Procedure: as §1

PFTAIRE1 = PFTAIRE1 (Homo sapiens (Human), UniProt O94921)
Procedure: as §1

PI4KA, PI4KAP2 = test system: PI4KA, PI4KAP2
Procedure: as §1

PIK3CG = PIK3CG (Homo sapiens (Human), UniProt P48736)
Procedure: as §1

PKD2 = PKD2 (Homo sapiens (Human), UniProt Q9BZL6)
Procedure: as §1

PRP4 = PRP4 (Homo sapiens (Human), UniProt Q13523)
Procedure: as §1

SLK = SLK (Homo sapiens (Human), UniProt Q9H2G2)
Procedure: as §1

SMG1 = SMG1 (Homo sapiens (Human), UniProt Q96Q15)
Procedure: as §1

SNRK = SNRK (Homo sapiens (Human), UniProt Q9NRH2)
Procedure: as §1

SRPK1 = SRPK1 (Homo sapiens (Human), UniProt Q96SB4)
Procedure: as §1

TAO1, TAO3 = test system: TAO1, TAO3
Procedure: as §1

ULK1 = ULK1 (Homo sapiens (Human), UniProt O75385)
Procedure: as §1

Wnk1, Wnk2, Wnk3 = test system: Wnk1, Wnk2, Wnk3
Procedure: as §1

ZAK = ZAK (Homo sapiens (Human), UniProt Q9NYL2)
Procedure: as §1

[1] = range class, read-out: % inhibition

NuaK1, sequence (O60285 whole entry): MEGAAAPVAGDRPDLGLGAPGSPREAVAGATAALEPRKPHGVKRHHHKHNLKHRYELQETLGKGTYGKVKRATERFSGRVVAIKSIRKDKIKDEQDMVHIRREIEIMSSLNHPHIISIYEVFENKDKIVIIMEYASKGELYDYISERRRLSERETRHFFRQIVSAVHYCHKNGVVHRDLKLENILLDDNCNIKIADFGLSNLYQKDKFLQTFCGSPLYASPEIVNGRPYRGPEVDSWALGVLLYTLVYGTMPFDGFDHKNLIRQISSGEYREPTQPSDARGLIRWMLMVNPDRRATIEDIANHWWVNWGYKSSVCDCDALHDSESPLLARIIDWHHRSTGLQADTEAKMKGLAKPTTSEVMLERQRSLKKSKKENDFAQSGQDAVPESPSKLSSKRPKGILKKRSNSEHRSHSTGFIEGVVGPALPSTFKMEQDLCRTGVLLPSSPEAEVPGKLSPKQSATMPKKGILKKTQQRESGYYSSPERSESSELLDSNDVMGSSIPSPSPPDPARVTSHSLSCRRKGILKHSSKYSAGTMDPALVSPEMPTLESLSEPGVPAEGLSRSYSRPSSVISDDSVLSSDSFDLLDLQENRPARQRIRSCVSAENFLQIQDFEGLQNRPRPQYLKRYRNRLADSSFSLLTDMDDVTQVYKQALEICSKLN
LATS1, sequence (O95835 whole entry): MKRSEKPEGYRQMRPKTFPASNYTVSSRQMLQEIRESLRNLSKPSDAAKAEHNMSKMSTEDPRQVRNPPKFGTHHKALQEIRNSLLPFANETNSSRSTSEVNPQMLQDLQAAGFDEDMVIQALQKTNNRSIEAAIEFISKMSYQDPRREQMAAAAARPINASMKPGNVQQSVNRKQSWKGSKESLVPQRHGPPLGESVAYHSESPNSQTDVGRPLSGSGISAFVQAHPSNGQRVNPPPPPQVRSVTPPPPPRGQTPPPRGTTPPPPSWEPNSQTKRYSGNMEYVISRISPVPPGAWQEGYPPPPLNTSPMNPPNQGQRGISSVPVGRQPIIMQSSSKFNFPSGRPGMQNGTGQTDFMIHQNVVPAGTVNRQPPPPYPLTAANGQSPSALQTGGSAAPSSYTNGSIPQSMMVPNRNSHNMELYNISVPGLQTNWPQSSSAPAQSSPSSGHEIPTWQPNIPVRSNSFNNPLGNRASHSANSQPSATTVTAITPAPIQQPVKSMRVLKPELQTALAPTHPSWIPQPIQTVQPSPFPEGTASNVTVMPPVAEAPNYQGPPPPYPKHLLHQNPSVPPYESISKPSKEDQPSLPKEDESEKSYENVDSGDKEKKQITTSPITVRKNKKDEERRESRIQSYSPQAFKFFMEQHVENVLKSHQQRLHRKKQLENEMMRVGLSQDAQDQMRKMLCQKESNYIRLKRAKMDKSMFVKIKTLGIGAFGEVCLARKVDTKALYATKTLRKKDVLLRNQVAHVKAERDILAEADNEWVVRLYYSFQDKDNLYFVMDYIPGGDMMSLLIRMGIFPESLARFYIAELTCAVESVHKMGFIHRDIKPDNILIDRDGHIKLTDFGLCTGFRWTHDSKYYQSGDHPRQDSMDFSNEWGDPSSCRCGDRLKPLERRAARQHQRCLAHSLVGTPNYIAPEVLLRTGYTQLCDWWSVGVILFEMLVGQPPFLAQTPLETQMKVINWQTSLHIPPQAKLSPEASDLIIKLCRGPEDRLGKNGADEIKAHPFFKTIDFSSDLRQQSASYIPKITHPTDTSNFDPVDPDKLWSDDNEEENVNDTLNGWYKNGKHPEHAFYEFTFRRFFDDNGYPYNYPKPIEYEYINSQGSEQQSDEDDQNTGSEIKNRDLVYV
MARK2, sequence (Q7KZI7 whole entry): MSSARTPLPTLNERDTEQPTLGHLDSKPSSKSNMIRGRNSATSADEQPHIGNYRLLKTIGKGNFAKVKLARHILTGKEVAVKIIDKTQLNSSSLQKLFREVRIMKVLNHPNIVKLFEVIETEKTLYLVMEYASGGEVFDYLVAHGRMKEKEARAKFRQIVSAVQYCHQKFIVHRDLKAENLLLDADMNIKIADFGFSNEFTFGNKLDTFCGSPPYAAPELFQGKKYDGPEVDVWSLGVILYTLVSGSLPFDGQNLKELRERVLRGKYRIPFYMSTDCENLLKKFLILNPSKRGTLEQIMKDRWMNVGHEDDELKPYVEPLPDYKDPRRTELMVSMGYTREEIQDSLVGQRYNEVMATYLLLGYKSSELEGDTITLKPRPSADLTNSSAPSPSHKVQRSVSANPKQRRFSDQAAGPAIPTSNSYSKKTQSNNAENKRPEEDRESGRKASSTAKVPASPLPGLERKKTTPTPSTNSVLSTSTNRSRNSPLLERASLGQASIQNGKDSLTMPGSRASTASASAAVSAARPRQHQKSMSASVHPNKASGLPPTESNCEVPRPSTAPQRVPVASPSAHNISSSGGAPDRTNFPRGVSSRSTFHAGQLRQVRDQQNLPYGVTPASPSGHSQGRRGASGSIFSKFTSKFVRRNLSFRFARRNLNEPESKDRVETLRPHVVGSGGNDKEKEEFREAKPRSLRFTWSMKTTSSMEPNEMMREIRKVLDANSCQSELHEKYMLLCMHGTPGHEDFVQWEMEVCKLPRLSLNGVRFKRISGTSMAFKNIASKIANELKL
MPSK1, sequence (O75716 whole entry): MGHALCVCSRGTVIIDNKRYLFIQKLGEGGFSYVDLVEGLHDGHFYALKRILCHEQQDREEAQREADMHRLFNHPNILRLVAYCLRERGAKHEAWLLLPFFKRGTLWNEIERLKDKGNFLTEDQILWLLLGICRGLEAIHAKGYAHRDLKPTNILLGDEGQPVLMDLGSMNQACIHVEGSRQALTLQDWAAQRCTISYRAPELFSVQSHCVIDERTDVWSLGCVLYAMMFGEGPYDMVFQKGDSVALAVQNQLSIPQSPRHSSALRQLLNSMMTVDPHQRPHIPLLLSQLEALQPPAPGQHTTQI
GSK3A, sequence (P49840 whole entry): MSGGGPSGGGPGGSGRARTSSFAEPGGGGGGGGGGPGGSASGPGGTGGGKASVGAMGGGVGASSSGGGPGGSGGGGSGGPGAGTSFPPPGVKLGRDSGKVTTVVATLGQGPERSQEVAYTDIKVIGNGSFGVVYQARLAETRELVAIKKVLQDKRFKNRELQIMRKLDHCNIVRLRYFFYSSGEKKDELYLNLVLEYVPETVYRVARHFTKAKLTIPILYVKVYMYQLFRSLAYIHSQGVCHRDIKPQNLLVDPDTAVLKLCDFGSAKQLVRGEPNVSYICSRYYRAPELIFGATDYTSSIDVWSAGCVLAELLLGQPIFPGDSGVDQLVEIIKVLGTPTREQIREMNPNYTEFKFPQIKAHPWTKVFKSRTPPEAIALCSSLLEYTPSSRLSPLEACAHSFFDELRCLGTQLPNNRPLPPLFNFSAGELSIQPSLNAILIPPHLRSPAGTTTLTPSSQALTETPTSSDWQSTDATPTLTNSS
MST3, sequence (Q9Y6E0 whole entry): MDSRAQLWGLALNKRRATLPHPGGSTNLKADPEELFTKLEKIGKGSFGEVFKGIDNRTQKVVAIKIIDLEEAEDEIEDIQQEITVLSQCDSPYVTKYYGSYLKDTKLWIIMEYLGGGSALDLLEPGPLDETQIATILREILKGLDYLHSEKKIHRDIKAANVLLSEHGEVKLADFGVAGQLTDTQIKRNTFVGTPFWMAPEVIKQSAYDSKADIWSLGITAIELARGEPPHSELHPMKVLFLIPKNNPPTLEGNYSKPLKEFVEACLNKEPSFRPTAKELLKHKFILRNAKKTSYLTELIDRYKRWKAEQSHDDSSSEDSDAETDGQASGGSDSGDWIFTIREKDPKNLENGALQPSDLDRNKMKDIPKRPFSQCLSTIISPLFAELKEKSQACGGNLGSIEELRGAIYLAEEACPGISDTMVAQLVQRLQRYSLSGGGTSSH
EphB2, sequence (P29323 19-1055): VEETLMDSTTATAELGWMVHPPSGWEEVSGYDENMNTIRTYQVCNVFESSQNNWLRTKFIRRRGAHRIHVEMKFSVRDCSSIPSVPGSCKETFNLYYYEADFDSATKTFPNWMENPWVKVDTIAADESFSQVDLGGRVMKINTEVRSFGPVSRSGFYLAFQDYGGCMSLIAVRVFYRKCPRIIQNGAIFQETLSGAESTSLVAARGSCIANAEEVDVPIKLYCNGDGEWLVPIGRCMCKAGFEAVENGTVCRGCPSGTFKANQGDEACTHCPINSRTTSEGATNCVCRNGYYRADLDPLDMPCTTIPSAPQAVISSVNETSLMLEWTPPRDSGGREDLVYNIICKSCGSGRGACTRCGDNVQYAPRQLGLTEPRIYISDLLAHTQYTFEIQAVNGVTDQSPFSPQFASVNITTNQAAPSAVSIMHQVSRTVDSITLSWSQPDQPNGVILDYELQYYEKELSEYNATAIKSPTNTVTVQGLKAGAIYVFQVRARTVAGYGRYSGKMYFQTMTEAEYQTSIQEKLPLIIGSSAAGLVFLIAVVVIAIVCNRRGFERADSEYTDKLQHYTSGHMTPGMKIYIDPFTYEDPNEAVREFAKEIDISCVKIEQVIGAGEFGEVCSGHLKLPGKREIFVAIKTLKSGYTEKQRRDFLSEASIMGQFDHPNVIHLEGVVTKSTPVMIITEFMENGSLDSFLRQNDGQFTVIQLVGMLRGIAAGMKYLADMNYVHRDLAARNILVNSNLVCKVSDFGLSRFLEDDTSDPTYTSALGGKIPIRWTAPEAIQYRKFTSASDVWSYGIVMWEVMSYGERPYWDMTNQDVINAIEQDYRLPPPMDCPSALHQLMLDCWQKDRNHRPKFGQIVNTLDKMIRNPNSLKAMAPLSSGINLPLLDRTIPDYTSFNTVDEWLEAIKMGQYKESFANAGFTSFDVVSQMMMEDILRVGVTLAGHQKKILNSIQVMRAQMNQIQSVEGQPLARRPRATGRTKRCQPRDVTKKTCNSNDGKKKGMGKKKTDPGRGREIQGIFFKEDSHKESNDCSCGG

Question: What does the source list for `Nc1ncc(-c2ccc(NS(=O)(=O)C3CC3)cc2F)cc1-c1ccc2c(c1)CCNC2=O` [Compound I-51, N-(4-(6-amino-5-(1-oxo-1,2,3,4-tetrahydroisoquinolin-6-yl)pyridin-3-yl)-3-fluorophenyl) cyclopropanesulfonamide]?
Answer: % inhibition (ABL, ARG; 10 μM, range class): 0.0%; inhibition (10 μM) (ABL, ARG): −3.0%; inhibition at 10 µM (BRAF; [1]): 0%; inhibition at 10 µM (BRAF; read-out: inhibition (10 μM)): -41.8%; inhibition at 10 µM (CDK7; [1]): 0%; inhibition at 10 µM (CDK7; read-out: inhibition (10 μM)): 17.4%; inhibition at 10 µM (CSK; [1]): 0%; inhibition at 10 µM (CSK; read-out: inhibition (10 μM)): 6.9%; inhibition at 10 µM (EphB2; [1]): 0%; inhibition at 10 µM (EphB2; read-out: inhibition (10 μM)): 8.8%; inhibition at 10 µM (GSK3A; [1]): 75 to 90%; inhibition at 10 µM (GSK3A; read-out: inhibition (10 μM)): 85.2%; % inhibition (IKKe, TBK1; 10 μM, range class): 0.0%; inhibition (10 μM) (IKKe, TBK1): 26.7%; inhibition at 10 µM (ILK; [1]): 0%; inhibition at 10 µM (ILK; read-out: inhibition (10 μM)): -31.3%; inhibition at 10 µM (LATS1; [1]): 0%; inhibition at 10 µM (LATS1; read-out: inhibition (10 μM)): 3.9%; inhibition at 10 µM (MAP2K5; [1]): 0%; inhibition at 10 µM (MAP2K5; read-out: inhibition (10 μM)): -4%; inhibition at 10 µM (MAP2K7; [1]): 0%; inhibition at 10 µM (MAP2K7; read-out: inhibition (10 μM)): 12.2%; inhibition at 10 µM (MAP3K1; [1]): > 90%; inhibition at 10 µM (MAP3K1; read-out: inhibition (10 μM)): 95.8%; inhibition at 10 µM (MAP3K2; [1]): 0%; inhibition at 10 µM (MAP3K2; read-out: inhibition (10 μM)): -11.2%; % inhibition (MARK1, MARK2; 10 μM, range class): 0.0%; inhibition (10 μM) (MARK1, MARK2): 9.3%; inhibition at 10 µM (MARK2; [1]): 0%; inhibition at 10 µM (MARK2; read-out: inhibition (10 μM)): 24.6%; inhibition at 10 µM (MLKL; [1]): 50 to 75%; inhibition at 10 µM (MLKL; read-out: inhibition (10 μM)): 51.4%; inhibition at 10 µM (MPSK1; [1]): 35 to 40%; inhibition at 10 µM (MPSK1; read-out: inhibition (10 μM)): 43.9%; inhibition at 10 µM (MST1; [1]): > 90%; inhibition at 10 µM (MST1; read-out: inhibition (10 μM)): 96.3%; inhibition at 10 µM (MST3; [1]): 50 to 75%; inhibition at 10 µM (MST3; read-out: inhibition (10 μM)): 53.3%; inhibition at 10 µM (NDR1; [1]): 0%; inhibition at 10 µM (NDR1; read-out: inhibition (10 μM)): 16.8%; inhibition (10 μM) (NuaK1): 68.8%; inhibition at 10 µM (NuaK1; [1]): 50 to 75%; inhibition at 10 µM (NuaK1; read-out: inhibition (10 μM)): 71.9%; inhibition at 10 µM (PFTAIRE1; [1]): 0%; inhibition at 10 µM (PFTAIRE1; read-out: inhibition (10 μM)): 8.8%; % inhibition (PI4KA, PI4KAP2; 10 μM, range class): 0.0%; inhibition (10 μM) (PI4KA, PI4KAP2): 0.1%; inhibition at 10 µM (PIK3CG; [1]): 0%; inhibition at 10 µM (PIK3CG; read-out: inhibition (10 μM)): -146%; inhibition at 10 µM (PKD2; [1]): 50 to 75%; inhibition at 10 µM (PKD2; read-out: inhibition (10 μM)): 73.2%; inhibition at 10 µM (PRP4; [1]): 0%; inhibition at 10 µM (PRP4; read-out: inhibition (10 μM)): 10.2%; inhibition at 10 µM (SLK; [1]): 75 to 90%; inhibition at 10 µM (SLK; read-out: inhibition (10 μM)): 85.6%; inhibition at 10 µM (SMG1; [1]): 50 to 75%; inhibition at 10 µM (SMG1; read-out: inhibition (10 μM)): 55.8%; inhibition at 10 µM (SNRK; [1]): 0%; inhibition at 10 µM (SNRK; read-out: inhibition (10 μM)): -26.2%; inhibition at 10 µM (SRPK1; [1]): 0%; inhibition at 10 µM (SRPK1; read-out: inhibition (10 μM)): -11.5%; % inhibition (TAO1, TAO3; 10 μM, range class): 75-90%; inhibition (10 μM) (TAO1, TAO3): 80.4%; inhibition at 10 µM (ULK1; [1]): 35 to 40%; inhibition at 10 µM (ULK1; read-out: inhibition (10 μM)): 40%; % inhibition (Wnk1, Wnk2, Wnk3; 10 μM, range class): 0.0%; inhibition (10 μM) (Wnk1, Wnk2, Wnk3): 0.2%; inhibition at 10 µM (ZAK; [1]): 50 to 75%; inhibition at 10 µM (ZAK; read-out: inhibition (10 μM)): 58.3%
